Assay results reported in patent publication US8563564B2, “Composition for skin external application containing gallocatechin gallate for moisturizing effect on the skin” (priority 2005, dated 2013).

Legend:
PPAR-α [1] = assay: PPAR-α activation capability, One-Factor-At-A-Time reporter gene (Dual-Luciferase) assay in CV-1 cells; format: cell-based; details: ratio based on the negative control, mean of three tests
Source text: (§1) One of the known methods for determining PPAR activation by observing PPAR activation/inactivation is reporter gene assay (Kliewer et. al., Nature, 1992, 358: 771-774). The reporter gene assay includes cloning a base sequence containing a promoter of interest and reporter genes, and injecting the base sequence into eukaryotic cells to activate transcription and to control the expression of a protein. Herein, protein expression increases as the promoter is activated. The reporter gene used for the first time is CAT (chloramphenicol acetyltransferase) gene. Recently, luciferase gene has been used widely. In the present invention, a Dual-Luciferase Reporter Assay System Kit available from Promega Co. was used. The following test was carried out to determine PPAR-α activation capability. CV-1 cells (ATCC CCL 70), i.e. monkey kidney epithelial cell line, were subcultured in a DMEM medium containing 10% bovine fetal serum treated with charcoal/dextrin. A phenol red-free medium was used to avoid the effect of estrogen upon phenol red. As plasmids, used were plasmids having PPRE (PPARs responsive element) as a promoter, followed by firefly luciferase genes as a reporter, the PPRE being activated by PPAR- (gene-containing PPAR- and ligand-bound PPAR-) bound next to the universal promoter expressed under general culture conditions, and a reference plasmid to which renilla luciferase genes were bound. CV-1 cells were plated on a 24-well microtiter plate at a concentration of 5×10^4 cells per well and cultured for 24 hours. Then, the above three types of plasmid genes were subjected to transient transfection by using a TransFast Kit available from Promega Co. After the cultured product was washed with PBS (phosphate buffered saline) once, the product was treated with a suitable concentration of sample materials, cultured again for 24 hours, and washed with PBS twice. Next, the cells were lysed with PLB (passive lysis buffer, Promega) once, and determined for luciferase activity by using a Dual-Luciferase Reporter Assay System Kit (Promega) in the samples and the controls. In this test, as a positive control, Wy14643 known as the strongest PPAR-α ligand was used. As negative controls, DMSO used to dissolve the samples and non-treated group were used. Each reported value was calculated as a ratio based on the negative control. The results are shown in the following Table 1, wherein each value is the mean value obtained after carrying out the test three times.

PPAR-α [2] = assay: PPAR-α activation capability of GCG/theobromine/quercetin combinations, response surface methodology (central composite design); format: cell-based
Source text: as §1, with “CV-1” for “One of the known methods for determining PPAR activation by observing PPAR activation/inactivation is reporter gene assay (Kliewer et. al., Nature, 1992, 358: 771-774). The reporter gene assay includes cloning a base sequence containing a promoter of interest and reporter genes, and injecting the base sequence into eukaryotic cells to activate transcription and to control the expression of a protein. Herein, protein expression increases as the promoter is activated. The reporter gene used for the first time is CAT (chloramphenicol acetyltransferase) gene. Recently, luciferase gene has been used widely. In the present invention, a Dual-Luciferase Reporter Assay System Kit available from Promega Co. was used. The following test was carried out to determine PPAR-α activation capability. CV-1”, “times. […] When using RSM, it is possible to understand the level of an independent parameter where a response value is optimized, to estimate the effect of an independent parameter upon response parameters via estimation of a functional relationship between each independent parameter and dependent parameter, and to determine optimized experimental conditions. […]” for “times.”

| Molecule | PPAR-α Activation (PPAR-α [1]; 10 uM) | PPAR-α Activation (PPAR-α [1]; 100 uM) | further results |
| --- | --- | --- | --- |
| Oc1cc(O)c2c(c1)O[C@H](c1ccc(O)c(O)c1)[C@@H](O)C2 [(+) CA] | 1.5 | 1.4 | – |
| Oc1cc(O)c2c(c1)O[C@@H](c1ccc(O)c(O)c1)[C@@H](O)C2 [(+) EC] | 1.3 | 1.2 | – |
| O=C(O[C@@H]1Cc2c(O)cc(O)cc2O[C@H]1c1ccc(O)c(O)c1)c1cc(O)c(O)c(O)c1 [(−) CG] | 1.2 | 1.6 | – |
| O=C(O[C@@H]1Cc2c(O)cc(O)cc2O[C@@H]1c1ccc(O)c(O)c1)c1cc(O)c(O)c(O)c1 [(−) ECG] | 1.1 | 1.6 | – |
| Oc1cc(O)c2c(c1)O[C@H](c1ccc(O)c(O)c1)[C@H](O)C2 [(−) EC] | 1.2 | 1.2 | – |
| Oc1cc(O)c2c(c1)O[C@H](c1cc(O)c(O)c(O)c1)[C@H](O)C2 [(−) EGC] | 1.3 | 1.0 | – |
| O=C(O[C@@H]1Cc2c(O)cc(O)cc2O[C@H]1c1cc(O)c(O)c(O)c1)c1cc(O)c(O)c(O)c1 [(−) GCG, gallocatechin gallate] | 1.1 | 2.3 | fold (PPAR-α activation) (PPAR-α [2]; GCG 100, theobromine 0, quercetin 0): 1.191 fold |
| Oc1cc(O)c2c(c1)O[C@@H](c1cc(O)c(O)c(O)c1)[C@H](O)C2 [(−) GC] | 1.1 | 1.0 | – |
| Cn1c(=O)c2c(ncn2C)n(C)c1=O [Caffeine] | 1.3 | 1.6 | – |
| O=C(O)c1cc(O)c(O)c(O)c1 [Gallic acid] | 1.3 | 1.7 | – |
| O=c1c(O)c(-c2ccc(O)cc2)oc2cc(O)cc(O)c12 [Kaempferol] | 1.7 | 1.4 | – |
| O=c1c(O)c(-c2cc(O)c(O)c(O)c2)oc2cc(O)cc(O)c12 [Myricetin] | 1.7 | 1.6 | – |
| Cc1cccc(Nc2cc(Cl)nc(SCC(=O)O)n2)c1C [Positive Control, Wy14643] | 3.8 | – | PPAR-α Activation (PPAR-α [1]; 0.1 uM): 1.5; PPAR-α Activation (PPAR-α [1]; 1 uM): 2.6 |
| O=c1c(O)c(-c2ccc(O)c(O)c2)oc2cc(O)cc(O)c12 [Quercetin] | 1.7 | 2.3 | fold (PPAR-α activation) (PPAR-α [2]; GCG 0, theobromine 0, quercetin 100): 1.3 fold |
| O=C(O)[C@]1(O)C[C@@H](O)[C@@H](O)[C@H](O)C1 [Quinic acid] | 1.3 | 1.7 | – |
| C[C@@H]1O[C@@H](OC[C@H]2O[C@@H](Oc3c(-c4ccc(O)c(O)c4)oc4cc(O)cc(O)c4c3=O)[C@H](O)[C@@H](O)[C@@H]2O)[C@H](O)[C@H](O)[C@H]1O [Rutin hydrate] | 1.6 | 1.3 | – |
| CCNC(=O)CC[C@H](N)C(=O)O [Theanine] | 1.8 | 1.9 | – |
| Cn1cnc2c1c(=O)[nH]c(=O)n2C [Theobromine] | 2.2 | 4.5 | fold (PPAR-α activation) (PPAR-α [2]; GCG 0, theobromine 100, quercetin 0): 1.905 fold |
| Cn1c(=O)c2[nH]cnc2n(C)c1=O [Theophylline] | 1.4 | 1.7 | – |
| Epigallocatechin gallate [(−) EGCG] | 1.0 | 1.5 | – |
